pEC50: −log10 of the molar value. Activity calls are given as the source filed them. The rule behind the calls is not given here.
Key:
[1] = Induction of morphological transformation of rat ASK cells into astrocytes after 1 hr by light microscopy; assay type: functional; conditions: read-out: ED50 (the source's name)
[2] = tested on: ASK; test: Induction of morphological transformation of rat ASK cells into astrocytes at 100 ug/ml after 1 hr by light microscopy; assay type: functional, cell-based
[3] = Induction of morphological transformation of rat ASK cells into astrocytes at 0.004 uM after 1 hr by light microscopy; assay type: functional
[4] = Induction of morphological transformation of rat ASK cells into astrocytes at 0.02 uM after 1 hr by light microscopy; assay type: functional
[5] = Induction of morphological transformation of rat ASK cells into astrocytes at 0.10 uM after 1 hr by light microscopy; assay type: functional
[6] = Induction of morphological transformation of rat ASK cells into astrocytes at 0.5 uM after 1 hr by light microscopy; assay type: functional
[7] = Induction of morphological transformation of rat ASK cells into astrocytes at 2.5 uM after 1 hr by light microscopy; assay type: functional
[8] = Induction of morphological transformation of rat ASK cells into astrocytes at 6.2 uM after 1 hr by light microscopy in absence of fetal calf serum; assay type: functional
[9] = Induction of morphological transformation of rat ASK cells into astrocytes at 12.5 uM after 1 hr by light microscopy in absence of fetal calf serum; assay type: functional
[10] = Induction of morphological transformation of rat ASK cells into astrocytes at 25 uM after 1 hr by light microscopy in absence of fetal calf serum; assay type: functional
[11] = Induction of morphological transformation of rat ASK cells into astrocytes at 50 uM after 1 hr by light microscopy in absence of fetal calf serum; assay type: functional
[12] = Induction of morphological transformation of rat ASK cells into astrocytes at 100 uM after 1 hr by light microscopy in absence of fetal calf serum; assay type: functional
[13] = Induction of morphological transformation of rat ASK cells into astrocytes at 6.2 uM after 1 hr by light microscopy in presence of fetal calf serum; assay type: functional
[14] = Cytotoxicity against rat ASK cells at 150 uM; assay type: cell-based
[15] = Induction of morphological transformation of rat ASK cells into astrocytes at 12.5 uM after 1 hr by light microscopy in presence of fetal calf serum; assay type: functional
[16] = Induction of morphological transformation of rat ASK cells into astrocytes at 25 uM after 1 hr by light microscopy in presence of fetal calf serum; assay type: functional
[17] = Induction of morphological transformation of rat ASK cells into astrocytes at 50 uM after 1 hr by light microscopy in presence of fetal calf serum; assay type: functional
[18] = Induction of morphological transformation of rat ASK cells into astrocytes at 100 uM after 1 hr by light microscopy in presence of fetal calf serum; assay type: functional
[19] = Induction of morphological transformation of rat ASK cells into astrocytes at 150 uM after 1 hr by light microscopy in presence of fetal calf serum; assay type: functional
[20] = Induction of morphological transformation of rat ASK cells into astrocytes at 6.2 uM after 1 hr by light microscopy in presence of colchicine; assay type: functional
[21] = Induction of morphological transformation of rat ASK cells into astrocytes at 12.5 uM after 1 hr by light microscopy in presence of colchicine; assay type: functional
[22] = Induction of morphological transformation of rat ASK cells into astrocytes at 25 uM after 1 hr by light microscopy in presence of colchicine; assay type: functional
[23] = Induction of morphological transformation of rat ASK cells into astrocytes at 50 uM after 1 hr by light microscopy in presence of colchicine; assay type: functional
[24] = Induction of morphological transformation of rat ASK cells into astrocytes at 100 uM after 1 hr by light microscopy in presence of colchicine; assay type: functional
[25] = Induction of cAMP production in rat ASK cells assessed per 10^6 cells at 50 uM after 1 hr by radioimmunoassay; assay type: functional

Row | SMILES | pEC50 [1] | Activity [2] | also measured
1 | CC1=C(/C=C/C(C)=C/C=C/C(C)=C/C=C/C(=O)O)C(C)(C)CCC1 | < 4.60 |  | 
2 | COC(C)C1=C(/C=C/C(C)=C/C=C/C(C)=C/C(=O)O)C(C)(C)CC1 (configuration not stated) | > 5.00 |  | 
3 | CC(/C=C/C12OC1(C)CCCC2(C)C)=C\C=C\C(C)=C\C(=O)O (configuration not stated) | < 4.60 |  | 
4 | C=C[C@@]1(C)CC(=O)[C@@]23OS(=O)O[C@H]4CCC(C)(C)[C@H]([C@H](O)[C@H](OC(C)=O)[C@@]2(C)O1)[C@]43C (some centres not stated) | 5.51 |  | 
5 | C=C[C@@]1(C)CC(=O)[C@]2(O)[C@@]3(C)[C@@H](O)CCC(C)(C)[C@@H]3[C@H](O)[C@H](O)[C@@]2(C)O1 | 5.41 |  | 
6 | C=C[C@@]1(C)CC(O)[C@]2(O)[C@@]3(C)[C@@H](O)CCC(C)(C)[C@@H]3[C@H](O)[C@H](OC(C)=O)[C@@]2(C)O1 (some centres not stated) | 5.19 |  | 
7 | CC1=C(CC/C(C)=C/C=C/C(C)=C/C(=O)O)C(C)(C)CCC1 | > 5.00 |  | 
8 | CC(=O)C1=C(/C=C/C(C)=C/C=C/C(C)=C/C(=O)O)C(C)(C)CC1 | < 4.60 |  | 
9 | CC1=C(/C=C/C(C)C/C=C/C(C)=C/C(=O)O)C(C)(C)CCC1 (configuration not stated) | 5.00 |  | 
10 | C=C[C@@]1(C)CC(=O)[C@@H]2[C@@]3(C)CCCC(C)(C)[C@@H]3[C@H](O)[C@H](OC(C)=O)[C@@]2(C)O1 | < 4.00 |  | 
11 | CC(/C=C/C1C(C)CCCC1(C)C)=C\C=C\C(C)=C\C(=O)O (configuration not stated) | > 5.00 |  | 
12 | CC(C)=CCC[C@](C)(O)[C@H]1CC[C@]2(C)[C@@H]1[C@H](O)C[C@@H]1[C@@]3(C)CC[C@H](O)C(C)(C)[C@@H]3[C@@H](O[C@@H]3O[C@H](CO)[C@@H](O)[C@H](O)[C@H]3O[C@@H]3O[C@@H](C)[C@H](O)[C@@H](O)[C@H]3O)C[C@]12C |  | inactive | 
13 | CC(C)=CCC[C@](C)(O[C@@H]1O[C@H](CO)[C@@H](O)[C@H](O)[C@H]1O)[C@H]1CC[C@]2(C)[C@@H]1[C@H](O)C[C@@H]1[C@@]3(C)CC[C@H](O)C(C)(C)[C@@H]3[C@@H](O[C@@H]3O[C@H](CO)[C@@H](O)[C@H](O)[C@H]3O)C[C@]12C |  | inactive | 
14 | CC(C)=CCC[C@](C)(O[C@@H]1O[C@H](CO)[C@@H](O)[C@H](O)[C@H]1O)[C@H]1CC[C@]2(C)[C@@H]1[C@H](O)C[C@@H]1[C@@]3(C)CC[C@H](O)C(C)(C)[C@@H]3[C@@H](O[C@@H]3O[C@H](CO)[C@@H](O)[C@H](O)[C@H]3O[C@@H]3O[C@@H](C)[C@H](O)[C@@H](O)[C@H]3O)C[C@]12C |  | inactive | 
15 | CC(C)=CCC[C@](C)(O[C@@H]1O[C@H](CO)[C@@H](O)[C@H](O)[C@H]1O)[C@H]1CC[C@]2(C)[C@@H]1[C@H](O)C[C@@H]1[C@@]3(C)CC[C@H](O[C@@H]4O[C@H](CO)[C@@H](O)[C@H](O)[C@H]4O[C@@H]4O[C@H](CO)[C@@H](O)[C@H](O)[C@H]4O)C(C)(C)[C@@H]3CC[C@]12C |  | inactive | 
16 | CC(C)=CCC[C@](C)(O[C@@H]1O[C@H](CO[C@@H]2OC[C@@H](O)[C@H](O)[C@H]2O)[C@@H](O)[C@H](O)[C@H]1O)[C@H]1CC[C@]2(C)[C@@H]1[C@H](O)C[C@@H]1[C@@]3(C)CC[C@H](O[C@@H]4O[C@H](CO)[C@@H](O)[C@H](O)[C@H]4O[C@@H]4O[C@H](CO)[C@@H](O)[C@H](O)[C@H]4O)C(C)(C)[C@@H]3CC[C@]12C |  | inactive | 
17 | CC(C)=CCC[C@](C)(O[C@@H]1O[C@H](CO[C@@H]2OC[C@H](O)[C@H](O)[C@H]2O)[C@@H](O)[C@H](O)[C@H]1O)[C@H]1CC[C@]2(C)[C@@H]1[C@H](O)C[C@@H]1[C@@]3(C)CC[C@H](O[C@@H]4O[C@H](CO)[C@@H](O)[C@H](O)[C@H]4O[C@@H]4O[C@H](CO)[C@@H](O)[C@H](O)[C@H]4O)C(C)(C)[C@@H]3CC[C@]12C |  | inactive | 
18 | CC(C)=CCC[C@](C)(O[C@@H]1O[C@H](CO[C@@H]2O[C@@H](CO)[C@H](O)[C@H]2O)[C@@H](O)[C@H](O)[C@H]1O)[C@H]1CC[C@]2(C)[C@@H]1[C@H](O)C[C@@H]1[C@@]3(C)CC[C@H](O[C@@H]4O[C@H](CO)[C@@H](O)[C@H](O)[C@H]4O[C@@H]4O[C@H](CO)[C@@H](O)[C@H](O)[C@H]4O)C(C)(C)[C@@H]3CC[C@]12C |  | inactive | 
19 | CC(C)=CCC[C@](C)(O[C@@H]1O[C@H](CO[C@@H]2O[C@H](CO)[C@@H](O)[C@H](O)[C@H]2O)[C@@H](O)[C@H](O)[C@H]1O)[C@H]1CC[C@]2(C)[C@@H]1[C@H](O)C[C@@H]1[C@@]3(C)CC[C@H](O[C@@H]4O[C@H](CO)[C@@H](O)[C@H](O)[C@H]4O[C@@H]4O[C@H](CO)[C@@H](O)[C@H](O)[C@H]4O)C(C)(C)[C@@H]3CC[C@]12C |  | inactive | 
20 | CC1(C)CC[C@]2(C(=O)O[C@@H]3O[C@H](CO)[C@@H](O)[C@H](O)[C@H]3O)CC[C@]3(C)C(=CC[C@@H]4[C@@]5(C)CC[C@H](O[C@@H]6O[C@H](C(=O)O)[C@@H](O)[C@H](O)[C@H]6O[C@@H]6O[C@H](CO)[C@@H](O)[C@H](O)[C@H]6O)C(C)(C)[C@@H]5CC[C@]43C)[C@@H]2C1 |  | inactive | 
21 | C=C[C@@]1(C)CC(=O)[C@]2(O)[C@@]3(C)[C@@H](O)CCC(C)(C)[C@@H]3[C@H](O)[C@H](OC(C)=O)[C@@]2(C)O1 [COLFORSIN] | 7.15 |  | Activity [3]: 0%; Activity [4]: 15%; Activity [5]: 50%; Activity [6]: 100%; Activity [7]: 100%
22 | CCOC(=O)/C=C(C)/C=C/C=C(C)/C=C/c1c(C)cc(OC)c(C)c1C [ETRETINATE] | < 4.60 |  | 
23 | CC(=O)OC/C=C(C)/C=C/C=C(C)/C=C/C1=C(C)CCCC1(C)C [GILRETINOL ACETATE] | 5.00 |  | 
24 | CC1=C(/C=C/C(C)=C/C=C/C(C)=C\C(=O)O)C(C)(C)CCC1 [ISOTRETINOIN] | > 5.00 |  | 
25 | CCNC(=O)/C=C(C)/C=C/C=C(C)/C=C/c1c(C)cc(OC)c(C)c1C [MOTRETINIDE] | < 4.60 |  | 
26 | CC1=C(/C=C/C(C)=C/C=C/C(C)=C/C=O)C(C)(C)CCC1 [RETINAL] | > 5.00 |  | 
27 | COC(=O)/C=C(C)/C=C/C=C(C)/C=C/C1=C(C)CCCC1(C)C [RETINOIC ACID METHYL ESTER] | < 4.60 |  | 
28 | CC1=C(/C=C/C(C)=C/C=C/C(C)=C/CO)C(C)(C)CCC1 [RETINOL] | < 4.60 |  | 
29 | CC1=C(/C=C/C(C)=C/C=C/C(C)=C/C(=O)O)C(C)(C)CCC1 [TRETINOIN] | 5.00 |  | Activity [8]: 50%; Activity [9]: 70%; Activity [10]: 80%; Activity [11]: 95%; Activity [12]: 100%; Activity [13]: 0%; Activity [14]: Toxic; Activity [15]: 10%; Activity [16]: 20%; Activity [17]: 30%; Activity [18]: 40%; Activity [19]: 65%; Activity [20]: 0%; Activity [21]: 0%; Activity [22]: 15%; Activity [23]: 30%; Activity [24]: 50%; Activity [25]: 20 pmol
